Test results from US20120129843A1, “PYRIDYL-THIAZOLYL INHIBITORS OF PRO-MATRIX METALLOPROTEINASE ACTIVATION” (priority 2010, published 2012).

Experiments:
[1] = target: T1, MMP9 processing by HFL-1 cells (Homo sapiens, UniProt P14780); assay: Activation of proMMP9 by human fetal lung fibroblast (HFL-1) cultures (Western blot); format: cell-based; conditions: 3.3 μM, 30 nM elastase, final 72 hrs; mAb-L51/82
T1 construct: host or cells: HFL-1 human fetal lung fibroblasts, TNFα plus neutrophil elastase
Description: Compound-α was assessed additionally for ability to block the maturation of proMMP9 to active MMP9 in cultures of human fetal lung fibroblasts (HFL-1, American Type Culture Collection #CCL-153). Unlike rat synoviocytes, HFL-1 cells were unable to process proMMP9 to the active form without addition of neutrophil elastase. […] Rather, the function of elastase in this assay may be to inactivate tissue inhibitors of matrix metalloproteinases (TIMPs) that repress endogenous pathways of MMP9 activation (Am J Respir Crit. Care Med; 1999; 159:1138-46).
HLF-1 were maintained in monolayer culture in DMEM with 10% FCS and were used between passage numbers 5-15. HLF-1 were embedded in collagen gels as described for rat SCW synoviocytes (vida supra). Half mL gels containing 0.4 million cells were dislodged into wells of 12 well Costar plates containing 1 mL/well of DMEM adjusted to contain 0.05% BSA and 100 ng/mL human TNFα (R&D Systems Cat #210-TA/CF). After overnight culture (37° C. and 5% CO2) wells were adjusted to contain an additional 0.5 mL of DMEM containing 0.05% BSA and with or without 13.2 μM Compound-α (final concentration was 3.3 μM Compound-α). Next, cultures were adjusted to contain 30 nM human elastase (Innovative Research). The plates were cultured an additional 72 hrs, at which time MMP9 secreted into the conditioned media was bound to gelatin-sepharose and evaluated by Western blot analysis as described for the rat synoviocyte cultures (vida supra). mAb-51/82 detected three forms of MMP9 in HFL-1 cultures.
These included a form of approximately 100 kD with mobility similar to recombinant rat proMMP9, an approximately 80 kD form with mobility similar to rat active MMP9, and an approximately 86 kD intermediate form. In the absence of Compound-α, most of the MMP9 was present as the 80 kD form. In the presence of Compound-α, the 80 kD form was a minor fraction of the total signal while nearly half of the signal were contributed each by the 100 kD and 86 kD forms. […]
A second experiment was performed to determine if the 80 kD form was mature active MMP9 and to determine the potency of Compound-α as an inhibitor of MMP9 maturation in this assay. HFL-1 cells embedded in collagen gels were cultured as described above in the presence of TNFα overnight and the cultures were then adjusted to contain 30 nM elastase and graded concentrations of Compound-α for an additional 72 hrs at which time MMP9 secreted into the conditioned media was bound to gelatin-sepharose and evaluated by Western blot analysis for active MMP9 using pAb-1246 raised against the N-terminal neoepitope of active MMP9 (Table 5). In the absence of Compound-α, pAb-1246 readily detected MMP9 with an electrophoretic mobility of approximately 80 kD. […]

[2] = target: T2, MMP9 in ankles of SCW-induced rats (Rattus norvegicus, UniProt P50282); assay: Pro and active MMP9 in ankles of rats with SCW-induced arthritis by Western blot; format: in vivo; conditions: Day 26, four hours after AM dose, FIG. 3A lanes 4-9
T2 construct: from tissue; host or cells: tibia-tarsus joints (ankles) of female Lewis rats
Description: Hind-limbs were skinned, severed just above the tibia-tarsus joint and below the metatarsals, and the tibia-tarsus joints (ankles) were weighed, snap frozen and pulverized on dry ice using a hammer and anvil. The pulverized tissue was suspended in 3 volumes (w:v) of ice-cold homogenization buffer containing 50 mM Tris pH 7.5, 150 mM NaCl, 5 mM EDTA, 1% Triton X100, 0.05% Brij 30, 10% dimethylsulfoxide and Complete EDTA-free Protease Inhibitor Cocktail (Roche Diagnostics). The suspended tissue was homogenized sequentially with a Kinematica AG Polytron and a Dounce homogenizer. Homogenates were centrifuged at 16,000×g for 10 min at 4° C. and the soluble fractions were saved. Dimethylsulfoxide was removed from a portion of each soluble fraction using PD MiniTrap™ G-25 desalting columns (GE Healthcare). Homogenates (0.25 mL), free of DMSO, were diluted with an equal volume of binding buffer (i.e., homogenization buffer without dimethylsufoxide) and adjusted to contain 50 μL of a 50% slurry of gelatin-conjugated sepharose. […]
To induce arthritis, Female Lewis (LEW/N) rats, 5-6 weeks of age (80-100 g) were injected (i.p.) with SCW PG-PS as described above. […] Each ankle was measured 3 times and averaged, and treatment groups were randomized based on ankle thickness (Table 6). […]

T1 sequence (P14780 20-707): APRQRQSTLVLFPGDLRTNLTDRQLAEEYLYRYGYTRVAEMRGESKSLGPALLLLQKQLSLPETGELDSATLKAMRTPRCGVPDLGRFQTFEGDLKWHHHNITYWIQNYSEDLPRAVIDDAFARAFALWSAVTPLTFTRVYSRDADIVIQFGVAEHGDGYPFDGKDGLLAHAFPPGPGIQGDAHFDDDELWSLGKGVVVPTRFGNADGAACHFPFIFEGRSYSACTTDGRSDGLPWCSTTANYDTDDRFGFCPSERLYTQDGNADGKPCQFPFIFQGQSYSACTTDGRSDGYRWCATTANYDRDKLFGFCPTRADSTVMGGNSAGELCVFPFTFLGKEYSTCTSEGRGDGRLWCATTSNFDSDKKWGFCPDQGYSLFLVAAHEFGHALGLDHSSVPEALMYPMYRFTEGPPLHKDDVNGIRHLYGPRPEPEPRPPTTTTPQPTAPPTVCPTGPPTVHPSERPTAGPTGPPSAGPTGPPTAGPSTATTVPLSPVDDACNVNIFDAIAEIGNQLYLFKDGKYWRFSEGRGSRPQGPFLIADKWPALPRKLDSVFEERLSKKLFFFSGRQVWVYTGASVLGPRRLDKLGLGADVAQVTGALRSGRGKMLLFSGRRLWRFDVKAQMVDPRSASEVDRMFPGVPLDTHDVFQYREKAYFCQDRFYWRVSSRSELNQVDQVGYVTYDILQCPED
T2 sequence (P50282 20-708): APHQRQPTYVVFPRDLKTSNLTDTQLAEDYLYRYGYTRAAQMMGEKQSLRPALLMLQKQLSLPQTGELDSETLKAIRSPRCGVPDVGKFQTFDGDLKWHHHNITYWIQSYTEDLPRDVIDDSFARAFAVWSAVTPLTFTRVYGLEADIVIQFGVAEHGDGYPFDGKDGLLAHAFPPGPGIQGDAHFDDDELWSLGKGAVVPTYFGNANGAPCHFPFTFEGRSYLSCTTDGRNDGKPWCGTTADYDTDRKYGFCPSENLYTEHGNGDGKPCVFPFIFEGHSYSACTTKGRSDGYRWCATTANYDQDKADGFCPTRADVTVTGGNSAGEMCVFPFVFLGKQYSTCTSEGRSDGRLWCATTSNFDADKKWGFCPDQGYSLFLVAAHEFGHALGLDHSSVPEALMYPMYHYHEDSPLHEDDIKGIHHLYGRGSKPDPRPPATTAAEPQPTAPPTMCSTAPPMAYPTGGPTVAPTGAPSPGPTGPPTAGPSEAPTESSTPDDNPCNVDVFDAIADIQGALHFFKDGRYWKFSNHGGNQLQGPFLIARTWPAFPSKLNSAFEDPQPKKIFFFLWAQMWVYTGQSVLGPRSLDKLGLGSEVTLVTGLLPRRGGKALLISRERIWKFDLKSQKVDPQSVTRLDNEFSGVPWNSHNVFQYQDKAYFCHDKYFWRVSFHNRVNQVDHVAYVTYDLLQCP

Percent of total signal, 80 kD [1]: 7% | Percent of total signal, 86 kD [1]: 47% | Percent of total signal, 100 kD [1]: 46% | Signal, Total [1]: 91346 INT*mm^2 | abundance of proMMP9 in ankles [2]: did not reduce the abundance of proMMP9 | abundance of proMMP9 in ankles ([2]; listed as Compound α): did not reduce the abundance of proMMP-9
Compound: Cc1nc(C)c(-c2csc(Nc3cc(S(N)(=O)=O)ccc3OC(C)C)n2)s1 [Compound-α, 3-(2′,4′-Dimethyl-[4,5′]bithiazolyl-2-ylamino)-4-isopropoxy-benzenesulfonamide.HBr]
